Legend:
[1] = tested on: recombinant mononucleosome; assay: ATPase assay (ADP-Glo); type: biochemical; settings: 0-40 min
Description: ATPase consumption assays were performed using the ADP-Glo Kinase Assay kit (Promega). The same conditions as the REAA nucleosome remodeling assay described above were used. Following incubation with desired substrates for 40 min at 37° C., 1× volume of ADP-Glo Reagent was used to quench the reaction and incubated at RT for 40 min. 2× volume of the Kinase Detection Reagent was then added and incubated at RT for 1 h. Luminescence readout was recorded. Substrates used for this assay were purified recombinant mononucleosome (EpiDyne Nucleosome Remodeling Assay Substrate ST601-GATC1, EpiCypher, Cat #16-4101). Nuclear extract material was used at 150ug for each ARID1A-IP using ARID1A antibody (Cell Signaling, Cat #12354S).

nucleosomes = assay: Restriction enzyme accessibility assay (REAA) nucleosome remodeling assay; type: biochemical; settings: 37 degrees C, 0-40 min
Description: SMARCA4 (BRG1) levels of the ammonium sulfate nuclear extracts were normalized via BCA protein quantification and Silver Stain analyses for HA-SS18 and HA-SS18-SSX conditions. Protein was diluted for final reaction concentration of 150 μg/mL in REAA buffer (20 mM HEPES, pH 8.0, 50 mM KCl, 5 mM MgCl2) containing 0.1 mg/mL BSA, 1 mM DTT, 20 nM nucleosomes (EpiDyne Nucleosome Remodeling Assay Substrate ST601-GATC1, EpiCypher). The REAA mixture was incubated at 37° C. for 10 min, and reaction was initiated using 1-2 mM ATP (Ultrapure ATP, Promega) and 0.005 U/mL DpnJJ Restriction Enzyme (New England Biolabs). The REAA reaction mixture was quenched with 20-24 mM EDTA and placed on ice. Proteinase K (Ambion) was added at 100 mg/mL for 30-60 min, followed by either AMPure bead DNA purification and D1000 HS DNA ScreenTape Analysis (Agilent) or mixing with GelPilot® Loading Dye (QIAGEN) and loading onto 8% TBE gel (Novex 8% TBE Gels, Thermo Fisher). TBE gels were stained with either SYBR®-Safe (Invitrogen) or Syto®-60 Red Fluorescent Nucleic Acid Stain (Invitrogen), followed by imaging with UV light on an Alpha Innotech AlphaImager™ 2200 and/or with 652 nm light excitation on a Li-Cor Odyssey® CLx imaging system (LI-COR).

[2] = tested on: BAF complex subunits and histone proteins; assay: Mass spectrometry proteomics of purified HA-SS18 WT and HA-SS18-SSX1 complexes (Tables 5A-5E); parameters: species or system human; settings: MS of HA purifications
Description: Confluent plates were scraped to remove cells and cells were washed with PBS. Cell suspension was spun down by centrifugation at 3000 rpm for 5 minutes at 4° C. and pellets were resuspended in hypotonic buffer (10 mM Tris HCl pH 7.5, 10 mM KCl, 1.5 mM MgCL2, 1 mM DTT, 1 mM PMSF) and incubated on ice for 5 minutes. Following incubation, cell suspension was spun down by centrifugation at 5000 rpm for 5 minutes at 4° C., and pellets were resuspended in 5× volume of fresh hypotonic buffer (with protease inhibitor cocktail, Roche C756U27) and then cells were homogenized using a Dounce homogenizer (glass). Cell suspension was layered onto hypotonic buffer sucrose cushion made with 30% sucrose w/v, spun down by centrifugation at 5000 rpm for 1 hour at 4° C. followed by removal of the cytosol-containing layer. The nuclei containing pellets were resuspended in high salt buffer (50 mM Tris HCl pH 7.5, 300 mM KCl, 1 mM MgCL2, 1 mM EDTA, 1 mM, 1% NP40, 1 mM DTT, 1 mM PMSF and protease inhibitor cocktail) and then the homogenate rotated for 1 hour at 4° C. Homogenates were then spun down by centrifugation at 20,000 rpm for 1 hour at 4° C. in a SW32Ti rotor (Beckman Coulter). The soluble proteins, consisting of the nuclear extract (NE) fraction, was separated from the insoluble chromatin pellet, consisting of the chromatin (CHR) fraction. […]

histone proteins = assay: Purification of mSWI/SNF (BAF) complexes from NE and CHR fractions, colloidal blue staining; parameters: species or system human
Description: Stable HEK293T cell lines expressing by lentiviral infection HA-SS18 WT or HA-SS18-SSX1 were grown in 150 mm dishes. Complexes were purified using methods previously described with a few modifications (Mashtalir et al. (2014) Mol. Cell 54:392-406). Confluent plates were scraped to remove cells and cells were washed with PBS. Cell suspension was spun down by centrifugation at 3000 rpm for 5 minutes at 4° C. and pellets were resuspended in hypotonic buffer (10 mM Tris HCl pH 7.5, 10 mM KCl, 1.5 mM MgCL2, 1 mM DTT, 1 mM PMSF) and incubated on ice for 5 minutes. Following incubation, cell suspension was spun down by centrifugation at 5000 rpm for 5 minutes at 4° C., and pellets were resuspended in 5× volume of fresh hypotonic buffer (with protease inhibitor cocktail, Roche C756U27) and then cells were homogenized using a Dounce homogenizer (glass). Cell suspension was layered onto hypotonic buffer sucrose cushion made with 30% sucrose w/v, spun down by centrifugation at 5000 rpm for 1 hour at 4° C. followed by removal of the cytosol-containing layer. The nuclei containing pellets were resuspended in high salt buffer (50 mM Tris HCl pH 7.5, 300 mM KCl, 1 mM MgCL2, 1 mM EDTA, 1 mM, 1% NP40, 1 mM DTT, 1 mM PMSF and protease inhibitor cocktail) and then the homogenate rotated for 1 hour at 4° C. […]

[3] = tested on: H2A K119Ub-modified nucleosomes; assay: Pull down of endogenous HA-SS18- or HA-SS18-SSX-bound BAF complexes with WT or H2A K119Ub-modified nucleosomes; type: binding; settings: endogenously purified complexes
Description: Difference is the score calculated between SYO1 (SS18-SSX+) cells and SW982 cells (negative for fusion, histologic mimic). mSWI/SNF, PRC1, PRC2 members are shown. […] H3 immunoblot is used for assessment of nucleosome binding to GST-SSX. […] SMARCA4 and H3 immunoblots are shown. FIG. 11G has two panels. […] Peptides were incubated −/+presence of USP2 treatment. Error bars=st.dev. […] H3 immunoblot is used for assessment of nucleosome binding to GST-SSX. […] Data for GST-SSX with WT nucleosomes and H2A K119Ub nucleosomes are shared between FIG. 11E.
SS cell lines containing the SS18-SSX fusion oncoprotein are highlighted in red. […] Difference is the score calculated between SYO1, Yamato-SS, SCS241 (SS18-SSX+) cells and SW982 cells (negative for fusion, histologic mimic). Blue indicates enriched for dependency. mSWI/SNF, PRC1, PRC2 members are shown. […] Synovial sarcoma cell lines are indicated in pink; all other cell lines are represented in gray. […] (Project DRIVE; available on the World Wide Web at oncologynibr.shinyapps.io/drive/). SS cell lines containing the SS18-SSX fusion oncoprotein are highlighted in red. […] H3 immunoblot is used for assessment of nucleosome binding to GST-SSX. […] SMARCA4 and H3 immunoblots are shown. […] Identified proteins labeled (Left). WB of the samples on the right indicating presence of histone H3 (Right).

[4] = tested on: unmodified or H2A K119Ub-modified nucleosomes; assay: Fluorescence polarization assay; type: binding; settings: H2A K119Ub versus unmodified nucleosomes

Substance | ATPase activity [1] | remodeling efficiency (nucleosomes) | peptides corresponding to the H2A K119Ub mark captured [2] | core histone proteins captured (histone proteins) | binding of H2A K119Ub-modified versus unmodified nucleosomes by BAF complexes [3] | binding affinity by fluorescence polarization [4]
SS18-SSX-bound BAF complexes: BAF complexes purified via HA-tagged SS18-SSX expressed in HEK-293T cells | slightly lower than that of WT SS18-bound complexes | slightly lower than that of WT SS18-bound complexes | captured only in the purifications of SS18-SSX-bound complexes | captured near-stoichiometric amounts of core histone proteins H2A, H2B, H3, and H4 | enriched for binding of recombinant H2A K119Ub-modified nucleosomes over unmodified nucleosomes | 
fluoro-labeled SSX: fluorescently-labeled SSX1 (78aa), in place of GST tag |  |  |  |  |  | higher binding affinity to H2A K119Ub-decorated nucleosomes compared to unmodified nucleosomes
